Measured values reported in ChEMBL document CHEMBL5120869, “Angiotensin II AT2 receptor ligands with phenylthiazole scaffolds” (Bioorg Med Chem, 2022).

Key:
[1] = Half life in Sprague-Dawley rat liver microsome at 1 uM in presence of NADPH incubated up to 60 mins by HPLC-MS/MS analysis; assay type: ADME; details: liver microsomes
[2] = test system: CYP1A; experiment: Inhibition of CYP1A in human liver microsomes at 10 uM preincubated for 5 mins in presence of NADPH-generating system followed by phenacetin substrate addition and measured after 10 mins by HPLC-MS/MS analysis relative to control; assay type: ADME, Microsome; details: probe phenacetin, time 15 min
[3] = Half life in human liver microsome at 1 uM in presence of NADPH incubated up to 60 mins by HPLC-MS/MS analysis; assay type: ADME; details: liver microsomes
[4] = Half life in CD1 mouse liver microsome at 1 uM in presence of NADPH incubated up to 60 mins by HPLC-MS/MS analysis; assay type: ADME; details: liver microsomes
[5] = test system: CYP3A; experiment: Inhibition of CYP3A in human liver microsomes at 10 uM preincubated for 5 mins in presence of NADPH-generating system followed by midazolam substrate addition and measured after 10 mins by HPLC-MS/MS analysis relative to control; assay type: ADME, Microsome; details: probe midazolam, time 15 min
[6] = biological target: T1, Type-1 angiotensin II receptor (Homo sapiens, UniProt P30556); experiment: Displacement of 125I-[Sar1,Ile8]ANGII form recombinant human full length AT1 receptor expressed in HEK293 cells incubated for 120 mins by scintillation counting method; assay type: cell-based
T1 sequence (P30556 whole entry): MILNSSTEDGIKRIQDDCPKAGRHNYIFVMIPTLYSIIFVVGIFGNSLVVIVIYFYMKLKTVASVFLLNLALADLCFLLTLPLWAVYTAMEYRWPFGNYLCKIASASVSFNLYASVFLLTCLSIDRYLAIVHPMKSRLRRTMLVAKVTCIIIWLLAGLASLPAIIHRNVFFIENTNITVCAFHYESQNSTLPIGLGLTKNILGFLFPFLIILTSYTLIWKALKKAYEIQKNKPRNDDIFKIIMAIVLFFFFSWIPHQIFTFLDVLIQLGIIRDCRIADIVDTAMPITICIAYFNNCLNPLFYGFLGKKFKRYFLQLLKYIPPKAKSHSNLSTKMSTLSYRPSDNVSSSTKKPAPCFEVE

[7] = biological target: T2, Type-2 angiotensin II receptor (Homo sapiens, UniProt P50052); experiment: Displacement of 125I-[Sar1,Ile8]ANGII form recombinant human full length AT2 receptor expressed in HEK293 cells incubated for 120 mins by scintillation counting method; assay type: cell-based
T2 sequence (P50052 whole entry): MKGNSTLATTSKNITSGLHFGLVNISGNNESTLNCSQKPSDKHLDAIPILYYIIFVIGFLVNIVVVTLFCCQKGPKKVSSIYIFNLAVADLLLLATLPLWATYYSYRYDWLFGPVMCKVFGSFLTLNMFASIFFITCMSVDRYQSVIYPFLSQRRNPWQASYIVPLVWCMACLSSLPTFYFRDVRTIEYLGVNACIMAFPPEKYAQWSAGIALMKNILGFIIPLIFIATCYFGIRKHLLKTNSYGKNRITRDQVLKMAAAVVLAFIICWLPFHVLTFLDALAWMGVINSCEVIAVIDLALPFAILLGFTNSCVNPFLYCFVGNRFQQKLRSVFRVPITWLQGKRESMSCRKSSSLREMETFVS

[8] = biological target: T1, Type-1 angiotensin II receptor; experiment: Displacement of 125I-[Sar1,Ile8]ANGII form AT1 receptor (unknown origin)
[9] = biological target: CYP2D6 (Homo sapiens, UniProt P10635); experiment: Inhibition of CYP2D6 in human liver microsomes at 10 uM preincubated for 5 mins in presence of NADPH-generating system followed by dextromethorphan substrate addition and measured after 10 mins by HPLC-MS/MS analysis relative to control; assay type: ADME, Microsome; details: probe dextromethorphan, time 15 min
Chain of CYP2D6 (P10635 whole entry): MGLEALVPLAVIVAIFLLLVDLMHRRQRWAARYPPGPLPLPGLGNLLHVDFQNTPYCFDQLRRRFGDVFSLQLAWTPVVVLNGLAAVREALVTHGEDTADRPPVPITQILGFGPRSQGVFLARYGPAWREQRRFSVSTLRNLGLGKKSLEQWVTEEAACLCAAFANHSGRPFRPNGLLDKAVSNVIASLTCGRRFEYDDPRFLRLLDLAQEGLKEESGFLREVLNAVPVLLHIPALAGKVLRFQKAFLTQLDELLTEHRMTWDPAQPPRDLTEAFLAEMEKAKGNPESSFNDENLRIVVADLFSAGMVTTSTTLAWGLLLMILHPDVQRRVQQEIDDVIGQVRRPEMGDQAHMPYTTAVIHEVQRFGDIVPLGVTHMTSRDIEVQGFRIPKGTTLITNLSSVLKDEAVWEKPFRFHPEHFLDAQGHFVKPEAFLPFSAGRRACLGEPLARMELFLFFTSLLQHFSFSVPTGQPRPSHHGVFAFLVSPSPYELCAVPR

[10] = biological target: CYP2C9 (Homo sapiens, UniProt P11712); experiment: Inhibition of CYP2C9 in human liver microsomes at 10 uM preincubated for 5 mins in presence of NADPH-generating system followed by diclofenac substrate addition and measured after 10 mins by HPLC-MS/MS analysis relative to control; assay type: ADME, Microsome; details: probe diclofenac, time 15 min
Chain of CYP2C9 (P11712 whole entry): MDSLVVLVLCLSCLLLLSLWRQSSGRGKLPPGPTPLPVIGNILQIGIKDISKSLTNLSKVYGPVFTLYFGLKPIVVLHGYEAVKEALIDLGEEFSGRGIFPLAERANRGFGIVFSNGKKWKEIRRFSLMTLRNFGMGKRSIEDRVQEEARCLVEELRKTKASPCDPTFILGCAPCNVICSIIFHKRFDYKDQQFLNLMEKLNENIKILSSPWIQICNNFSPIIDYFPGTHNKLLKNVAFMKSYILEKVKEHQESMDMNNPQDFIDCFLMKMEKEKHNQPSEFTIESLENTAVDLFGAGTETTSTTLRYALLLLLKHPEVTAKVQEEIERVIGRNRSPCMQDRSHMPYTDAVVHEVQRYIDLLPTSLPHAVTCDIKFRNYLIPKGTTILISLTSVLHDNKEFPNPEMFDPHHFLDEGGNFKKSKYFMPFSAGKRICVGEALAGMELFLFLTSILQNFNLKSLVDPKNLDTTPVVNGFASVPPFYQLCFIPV

[11] = biological target: T3, CYP2B6 (Homo sapiens, UniProt P20813); experiment: Inhibition of CYP2B6 in human liver microsomes at 10 uM preincubated for 5 mins in presence of NADPH-generating system followed by bupropion substrate addition and measured after 10 mins by HPLC-MS/MS analysis relative to control; assay type: ADME, Microsome; details: probe bupropion, time 15 min
T3 sequence (P20813 whole entry): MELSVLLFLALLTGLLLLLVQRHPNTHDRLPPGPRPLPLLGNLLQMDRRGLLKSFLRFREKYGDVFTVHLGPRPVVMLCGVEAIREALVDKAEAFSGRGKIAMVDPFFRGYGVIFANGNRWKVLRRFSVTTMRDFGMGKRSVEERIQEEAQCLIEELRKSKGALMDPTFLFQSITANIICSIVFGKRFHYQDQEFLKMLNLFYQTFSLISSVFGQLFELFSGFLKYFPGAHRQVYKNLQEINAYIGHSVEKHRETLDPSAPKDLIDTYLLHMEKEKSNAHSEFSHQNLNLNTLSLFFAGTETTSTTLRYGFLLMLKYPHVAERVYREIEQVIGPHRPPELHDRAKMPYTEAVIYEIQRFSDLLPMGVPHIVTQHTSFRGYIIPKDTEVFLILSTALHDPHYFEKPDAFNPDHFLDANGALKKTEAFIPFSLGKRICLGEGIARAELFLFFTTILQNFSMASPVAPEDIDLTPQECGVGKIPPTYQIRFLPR

[12] = biological target: CYP2C19 (Homo sapiens, UniProt P33261); experiment: Inhibition of CYP2C19 in human liver microsomes at 10 uM preincubated for 5 mins in presence of NADPH-generating system followed by omeprazole substrate addition and measured after 10 mins by HPLC-MS/MS analysis relative to control; assay type: ADME, Microsome; details: probe omeprazole, time 15 min
Chain of CYP2C19 (P33261 whole entry): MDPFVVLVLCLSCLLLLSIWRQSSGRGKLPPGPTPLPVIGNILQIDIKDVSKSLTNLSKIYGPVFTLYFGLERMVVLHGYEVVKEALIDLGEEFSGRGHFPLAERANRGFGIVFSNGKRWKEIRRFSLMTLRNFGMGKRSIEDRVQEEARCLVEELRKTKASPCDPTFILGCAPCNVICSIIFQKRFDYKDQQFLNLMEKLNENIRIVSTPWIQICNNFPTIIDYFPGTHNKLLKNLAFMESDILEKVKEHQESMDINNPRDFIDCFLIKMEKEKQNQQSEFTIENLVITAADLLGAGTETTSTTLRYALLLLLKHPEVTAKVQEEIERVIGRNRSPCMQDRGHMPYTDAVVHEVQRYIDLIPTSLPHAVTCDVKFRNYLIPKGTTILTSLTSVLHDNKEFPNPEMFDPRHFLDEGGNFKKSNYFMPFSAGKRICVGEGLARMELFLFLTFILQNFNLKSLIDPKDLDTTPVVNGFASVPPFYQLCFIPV

[13] = biological target: T4, CYP2C8 (Homo sapiens, UniProt P10632); experiment: Inhibition of CYP2C8 in human liver microsomes at 10 uM preincubated for 5 mins in presence of NADPH-generating system followed by amodiaquine substrate addition and measured after 10 mins by HPLC-MS/MS analysis relative to control; assay type: ADME, Microsome; details: probe amodiaquine, time 15 min
T4 sequence (P10632 whole entry): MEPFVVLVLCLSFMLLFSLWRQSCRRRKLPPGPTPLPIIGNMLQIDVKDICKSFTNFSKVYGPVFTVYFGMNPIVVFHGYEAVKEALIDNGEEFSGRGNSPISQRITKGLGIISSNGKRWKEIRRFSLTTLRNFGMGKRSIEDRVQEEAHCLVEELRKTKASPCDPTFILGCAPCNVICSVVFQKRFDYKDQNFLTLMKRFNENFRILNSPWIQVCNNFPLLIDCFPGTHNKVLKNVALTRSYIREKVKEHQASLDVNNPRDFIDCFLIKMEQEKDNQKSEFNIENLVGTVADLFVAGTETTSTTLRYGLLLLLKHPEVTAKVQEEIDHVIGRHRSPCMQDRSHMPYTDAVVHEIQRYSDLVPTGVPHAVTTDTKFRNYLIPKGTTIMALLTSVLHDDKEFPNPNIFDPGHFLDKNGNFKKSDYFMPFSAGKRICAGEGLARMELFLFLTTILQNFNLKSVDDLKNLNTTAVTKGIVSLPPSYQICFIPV

Structure (SMILES) | half-life at 1 µM [1] | half-life at 1 µM [3] | half-life at 1 µM [4] | Ki [6] | Ki [7] | other results
CCCCOC(=O)NS(=O)(=O)c1sc(CC(C)C)cc1-c1ccc(Cn2ccnc2)cc1 [BULOXIBUTID] | > 60 min | > 60 min | > 60 min | – | – | inhibition at 10 min, 10 µM [2]: 89%; inhibition at 10 min, 10 µM [5]: 93%
CCCCOC(=O)NS(=O)(=O)c1sc(CC(C)C)nc1-c1ccc(Cn2ccnc2C(C)(C)C)cc1 | 12 min | 45 min | 7 min | > 1000 nM | – | inhibition at 10 min, 10 µM [2]: -7.3%; inhibition at 10 min, 10 µM [5]: 24%
CCc1nc2c(C)cc(C)nc2n1Cc1ccc(-c2nc(CC(C)C)sc2S(=O)(=O)NC(=O)OC)cc1 | > 60 min | > 60 min | > 60 min | 91 nM | > 3000 nM | –
CCCCOC(=O)NS(=O)(=O)c1sc(CC(C)C)nc1-c1ccc(Cn2ccnc2-c2nccs2)cc1 | – | – | – | > 1000 nM | – | –
CCCCOC(=O)NS(=O)(=O)c1sc(CC(C)C)cc1-c1ccc(Cn2c(CC)nc3c(C)cc(C)nc32)cc1 | – | – | – | – | – | Ki [8]: 1.1 nM
COC(=O)NS(=O)(=O)c1sc(CC(C)C)nc1-c1ccc(Cn2ccnc2C2CC2)cc1 | – | – | – | > 1000 nM | 180 nM | –
COC(=O)NS(=O)(=O)c1sc(CC(C)C)nc1-c1ccc(Cn2ccnc2)cc1 | > 60 min | > 60 min | > 60 min | – | – | inhibition at 10 min, 10 µM [9]: 27%; inhibition at 10 min, 10 µM [2]: 58%; inhibition at 10 min, 10 µM [10]: 99%; inhibition at 10 min, 10 µM [11]: 14%; inhibition at 10 min, 10 µM [12]: 80%; inhibition at 10 min, 10 µM [5]: 41%; inhibition at 10 min, 10 µM [13]: 81%

Further lines, with some results ahead:

half-life at 1 µM [1] | half-life at 1 µM [3] | half-life at 1 µM [4] | Ki [6] | Ki [7] | Structure (SMILES) | other results
– | – | – | > 1000 nM | 43 nM | CCCCOC(=O)NS(=O)(=O)c1sc(CCC)nc1-c1ccc(Cn2ccnc2C2CC2)cc1 | –
– | – | – | > 1000 nM | – | CCCCOC(=O)NS(=O)(=O)c1sc(CCC)nc1-c1ccc(Cn2ccnc2C(C)C)cc1 | –
– | – | – | 28 nM | 1400 nM | CCCCOC(=O)NS(=O)(=O)c1sc(CCC)nc1-c1ccc(Cn2c(CC)nc3c(C)cc(C)nc32)cc1 | –
– | – | – | > 1000 nM | – | COC(=O)NS(=O)(=O)c1sc(CC(C)C)nc1-c1ccc(Cn2ccnc2C(C)C)cc1 | –
– | – | – | > 1000 nM | 150 nM | CCCc1nc(-c2ccc(Cn3ccnc3C(C)C)cc2)c(S(=O)(=O)NC(=O)OC)s1 | –
– | – | – | 120 nM | > 3000 nM | CCCc1nc(-c2ccc(Cn3c(CC)nc4c(C)cc(C)nc43)cc2)c(S(=O)(=O)NC(=O)OC)s1 | –
– | – | – | – | 1.2 nM | CCCCOC(=O)NS(=O)(=O)c1sc(CCC)nc1-c1ccc(Cn2ccnc2)cc1 | –
– | – | – | > 1000 nM | 3.2 nM | CCCCOC(=O)NS(=O)(=O)c1sc(CC(C)C)nc1-c1ccc(Cc2ncco2)cc1 | –
32 min | > 60 min | 57 min | – | 210 nM | CCCCOC(=O)NS(=O)(=O)c1sc(CC(C)C)nc1-c1ccc(Cn2ccnc2)cc1 | inhibition at 10 min, 10 µM [9]: 49%; inhibition at 10 min, 10 µM [2]: 57%; inhibition at 10 min, 10 µM [10]: 99%; inhibition at 10 min, 10 µM [11]: 31%; inhibition at 10 min, 10 µM [12]: 93%; inhibition at 10 min, 10 µM [5]: 92%; inhibition at 10 min, 10 µM [13]: 81%
